The results in this text go back to US20250115598A1 (Anaxis Pharma Pty Ltd, priority 2021, published 2025).

pIC50, pKd: −log10 of the molar value. Like-named read-outs stand apart in the source and are kept apart here.

In assay [1] the test system is U937 human histiocytic leukemia cell line. In words: Cellular assay: inhibition of TSQ induced necroptosis, CellTitre-Glo viability. The note with it: Homo sapiens, U-937; U937 cells, 48 hours, TSQ cocktail, Table 26; read-out: Inhibition of TSQ-induced necroptosis (IC50 cell-based assay). As for the experimental part:
Cellular Assay: Screening Compounds for Inhibition of TSQ Induced Necroptosis, 384 Well Plate Format.
(§1) • Cell Line ID: U937 human histiocytic leukemia cell line. • Cell Concentration (cells/well): Final cell density is 20000 cells per well. • Cell growth medium: HT-RPMI medium+7.4% Fetal Bovine Serum (FBS). Cells are cultured in Corning 150 cm^2 tissue culture flasks with vented caps at 37° C./5% CO2. • Incubation: Plates were incubated at 37° C./5% CO2 in a humidified incubator for 48 hours following addition of compounds and death stimuli (TSQ cocktail). • Compound concentration: 36 μM starting concentration, 1:3 dilution, 10 point • DMSO final concentration (% v/v): 0.3%. Compounds in TSQ Cocktail (T: TNF; S: Smac Mimetic; Q: Q-VD-OPh) and their Final Concentrations: • hTNF-Fc (100 ng/ml)—produced by standard procedures as shown in Bossen et al., J. Biol. Chem., 2006, 281(20), 13964-13971. • Compound A (500 nM)—Smac mimetic, Tetralogic and SYNthesis med chem • Q-VD-OPh (10 μM)—MP Biomedicals
(§2) The cellular assay was carried out according to the following steps: • 1. Each well was prepared by sequential addition of: • a. DMSO (control; columns 1-2 and 23-24) or compound in DMSO—addition was performed using acoustic transfer of nL volumes of stock compound to give final test concentrations of 36, 12, 4, 1.3, 0.44, 0.148, 0.049, 0.016, 0.005 and 0.002 μM. All wells were backfilled with DMSO to a final total volume in the well of 100 nL. • b. Following compound/DMSO addition in step (a), 40 μL of cell suspension (5×10^5 cells/mL) was added to provide a final cell concentration of 20,000 cells per well, and • c. Following cell addition in step (b), 10 μL of 5×TSQ cocktail (except to positive controls; columns 1 and 23) was added to each well. • 2. After 48 hours, plate was removed from the 37° C. incubator and equilibrated to room temperature for 45 minutes. • 3.15 μL of room temperature CellTitre-Glo2™ (Promega™) was added to each well. • 4. Shook plates for 2 minutes (˜600 rpm) and incubated at room temperature for 15 minutes to allow signal to stabilise. • 5. Read luminescence readout on a plate reader.
Percent viability was calculated for each compound according to equation (2):
(§3) • Assay involving the TSQ cocktail (T: TNF; S: Smac mimetic; Q: Q-VD-OPh): TSQ treatment ensures that cells specifically undergo necroptotic cell death. TNF activates the TNF receptor, Smac mimetic directs the signal away from proinflammatory signaling and toward the RIPK1/RIPK3-mediated cell death pathways, and Q-VD-OPh ensures that the apoptotic response is blocked leaving only the programmed necrosis response. The compounds' activity (solution in DMSO) tested in this TSQ-induced assay was evaluated by determining the number of viable cells in culture by measuring the amount of ATP present as measured by CelltiterGlo. • Counter screen: In parallel, all compounds were tested for their ability to affect cell viability. The same U937 cells were treated with compound in DMSO without the TSQ cocktail. This counter screen enabled evaluation of off-target effects. In this case, cell viability was measured by CelltiterGlo.

For assay [2], the system named is U937 cells. Briefly: Counter screen: cell viability without the TSQ cocktail (off-target effect). Also noted: species or system human. The note with it: Homo sapiens. As for the experimental part:
as §1, §2, §3

Assay [3] addresses human MLKL (full length) (Homo sapiens (Human), UniProt Q8NB16). In words: KINOMEscan binding assay, human MLKL (full length). The conditions noted are these: hMLKL, Table 25; read-out: MLKL (KD). In a few lines: (§4)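 Assay principle: test compound competes with immobilized bead ligand for kinase; kinase retained, then eluted, is counted by qPCR. Conditions were 1% DMSO final with 11 compound concentrations in 3-fold steps, 30,000 nM top for most. The Hill equation with slope −1 gave Kd.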

Assay [4] concerns the target human RIPK1 (Homo sapiens (Human), UniProt Q13546). In words: KINOMEscan binding assay, human RIPK1. The conditions noted are these: Table 21. In a few lines:
as §4

Assay [5] deals with human RIPK3 (Homo sapiens (Human), UniProt Q9Y572). In words: KINOMEscan binding assay, human RIPK3. The conditions noted are these: Table 21. In a few lines:
as §4

In assay [6] the test system is Immortalised Mouse Dermal Fibroblasts (MDFs). In words: Cellular assay: inhibition of TSI induced necroptosis, CellTitre-Glo viability. The conditions noted are these: Mus musculus, Fibroblast; MDF, 3 hours TSI cocktail, Table 24; read-out: Inhibition of TSI-induced necroptosis (IC50 cell-based assay) in MDF. In a few lines: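 Necroptosis induced for 3 h with TSI: rhTNF 100 ng/ml, Smac mimetic 500 nM, caspase inhibitor IDN-6556 10 μM. Mouse dermal fibroblasts had received compound (36 μM top, ten three-fold steps) 30 min beforehand. ATP-based viability scaled between untreated and TSI-only wells; IC50 taken as 4-parameter curve inflection.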

The mark [7] stands for this setting: U-937, Table 26, read-out: Off-target effect (IC50 cell-based assay).

Chain of human MLKL (full length) (Q8NB16 whole entry): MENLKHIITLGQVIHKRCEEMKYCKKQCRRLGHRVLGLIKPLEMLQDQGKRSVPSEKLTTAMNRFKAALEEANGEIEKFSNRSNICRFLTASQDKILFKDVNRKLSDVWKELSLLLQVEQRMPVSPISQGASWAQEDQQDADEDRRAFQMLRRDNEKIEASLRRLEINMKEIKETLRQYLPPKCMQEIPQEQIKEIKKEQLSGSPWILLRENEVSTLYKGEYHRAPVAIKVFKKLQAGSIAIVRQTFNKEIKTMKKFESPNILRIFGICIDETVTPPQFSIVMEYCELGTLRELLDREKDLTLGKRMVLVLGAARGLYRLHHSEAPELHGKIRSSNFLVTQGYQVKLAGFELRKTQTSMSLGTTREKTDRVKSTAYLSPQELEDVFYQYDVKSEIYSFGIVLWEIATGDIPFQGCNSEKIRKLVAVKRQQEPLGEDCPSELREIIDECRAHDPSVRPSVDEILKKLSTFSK
Chain of human RIPK3 (Q9Y572 whole entry): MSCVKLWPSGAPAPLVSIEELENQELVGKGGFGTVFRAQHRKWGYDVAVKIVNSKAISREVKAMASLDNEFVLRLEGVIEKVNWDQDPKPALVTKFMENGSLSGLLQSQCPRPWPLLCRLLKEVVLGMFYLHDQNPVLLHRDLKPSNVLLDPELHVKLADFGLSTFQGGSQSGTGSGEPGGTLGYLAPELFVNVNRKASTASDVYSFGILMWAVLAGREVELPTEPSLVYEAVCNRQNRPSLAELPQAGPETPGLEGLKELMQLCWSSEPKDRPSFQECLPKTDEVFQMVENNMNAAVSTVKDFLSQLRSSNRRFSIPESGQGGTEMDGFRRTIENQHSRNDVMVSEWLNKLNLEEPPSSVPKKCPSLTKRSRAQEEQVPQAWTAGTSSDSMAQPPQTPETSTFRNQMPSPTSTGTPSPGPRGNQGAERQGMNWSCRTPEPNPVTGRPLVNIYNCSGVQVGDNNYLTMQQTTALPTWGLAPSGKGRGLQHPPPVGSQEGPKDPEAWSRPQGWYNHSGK
Chain of human RIPK1 (Q13546 whole entry): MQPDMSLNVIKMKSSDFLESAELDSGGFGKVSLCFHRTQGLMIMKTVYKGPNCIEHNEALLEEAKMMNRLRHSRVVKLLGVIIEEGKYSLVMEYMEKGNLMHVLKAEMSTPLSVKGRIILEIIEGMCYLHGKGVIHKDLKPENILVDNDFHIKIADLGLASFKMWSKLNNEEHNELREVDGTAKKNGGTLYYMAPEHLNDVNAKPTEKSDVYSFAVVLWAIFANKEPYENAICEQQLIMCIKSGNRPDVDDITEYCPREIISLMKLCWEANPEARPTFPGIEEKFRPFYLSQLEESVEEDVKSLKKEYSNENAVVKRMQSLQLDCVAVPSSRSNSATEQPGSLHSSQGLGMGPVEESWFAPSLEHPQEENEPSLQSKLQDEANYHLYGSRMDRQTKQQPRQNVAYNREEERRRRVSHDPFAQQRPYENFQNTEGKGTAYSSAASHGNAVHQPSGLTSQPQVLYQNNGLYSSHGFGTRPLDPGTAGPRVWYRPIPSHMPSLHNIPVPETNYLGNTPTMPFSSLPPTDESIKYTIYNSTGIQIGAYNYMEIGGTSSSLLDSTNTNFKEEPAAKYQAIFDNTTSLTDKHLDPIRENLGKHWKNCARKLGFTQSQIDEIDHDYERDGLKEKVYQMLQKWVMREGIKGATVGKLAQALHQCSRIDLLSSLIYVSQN

With `CCS(=O)(=O)Nc1ccc(-c2nn(C)c3c(-c4cnn(CCOCCOCC(=O)N[C@H](C(=O)N5C[C@H](O)C[C@H]5C(=O)NCc5ccc(-c6scnc6C)cc5)C(C)(C)C)c4)cnc(C)c23)cc1F` [Compound 1029, (2S,4R)-1-[(2S)-2-{2-[2-(2-{4-[3-(4-ethanesulfonamido-3-fluorophenyl)-1,4-dimethyl-1H-pyrazolo[4,3-c]pyridin-7-yl]-1H-pyrazol-1-yl}ethoxy)ethoxy]acetamido}-3,3-dimethylbutanoyl]-4-hydroxy-N-{[4-(4-methyl-1,3-thiazol-5-yl)phenyl]methyl}pyrrolidine-2-carboxamide], the pIC50 was more than 6.00 in assay [1] and less than 5.00 in assay [2] (setting [7]).

`CCS(=O)(=O)Nc1ccc(-c2n[nH]c3c(-c4cnn(CCC(=O)N[C@H](C(=O)N5C[C@H](O)C[C@H]5C(=O)NCc5ccc(-c6scnc6C)cc5)C(C)(C)C)c4)cnc(N)c23)cc1OCc1ccc(F)cc1` [Compound 1001, (2S,4R)-1-[(2S)-2-{3-[4-(4-amino-3-{4-ethanesulfonamido-3-[(4-fluorophenyl)methoxy]phenyl}-1H-pyrazolo[4,3-c]pyridin-7-yl)-1H-pyrazol-1-yl]propanamido}-3,3-dimethylbutanoyl]-4-hydroxy-N-{[4-(4-methyl-1,3-thiazol-5-yl)phenyl]methyl}pyrrolidine-2-carboxamide]: the pKd in assay [3] was more than 8.00. The pIC50 in assay [1] and in assay [2] (setting [7]) was less than 5.00 each time.

Turning to `Cc1ncsc1-c1ccc(CNC(=O)[C@@H]2C[C@H](O)CN2C(=O)[C@@H](NC(=O)COCCOCCn2cc(-c3cnc(N)c4c(-c5ccc(NS(=O)(=O)C(F)F)c(O[C@@H](C)c6ccc(F)cc6)c5)nn(C)c34)cn2)C(C)(C)C)cc1` [Compound 1007, (2S,4S)-1-[(2S)-2-(2-{2-[2-(4-{4-amino-3-[4-(difluoromethanesulfonamido)-3-[(1S)-1-(4-fluorophenyl)ethoxy]phenyl]-1-methyl-1H-pyrazolo[4,3-c]pyridin-7-yl}-1H-pyrazol-1-yl)ethoxy]ethoxy}acetamido)-3,3-dimethylbutanoyl]-4-hydroxy-N-{[4-(4-methyl-1,3-thiazol-5-yl)phenyl]methyl}pyrrolidine-2-carboxamide], in assay [3], the pKd is 6.00 to 8.00. For the same compound, the pIC50 in assay [1] is more than 6.00; in assay [2] (setting [7]), less than 5.00.

Take `CCS(=O)(=O)Nc1ccc(-c2n[nH]c3c(-c4cnn(CCCCC(=O)N[C@H](C(=O)N5C[C@H](O)C[C@H]5C(=O)NCc5ccc(-c6scnc6C)cc5)C(C)(C)C)c4)cnc(N)c23)cc1OCc1ccc(F)cc1` [Compound 1002, (2S,4R)-1-[(2S)-2-{5-[4-(4-amino-3-{4-ethanesulfonamido-3-[(4-fluorophenyl)methoxy]phenyl}-1H-pyrazolo[4,3-c]pyridin-7-yl)-1H-pyrazol-1-yl]pentanamido}-3,3-dimethylbutanoyl]-4-hydroxy-N-{[4-(4-methyl-1,3-thiazol-5-yl)phenyl]methyl}pyrrolidine-2-carboxamide]: the pKd in assay [3] was more than 8.00. Also, the pIC50 in assay [1] and in assay [2] (setting [7]) was less than 5.00 in each case.

Turning to `Cc1ncsc1-c1ccc(CNC(=O)[C@@H]2C[C@@H](O)CN2C(=O)[C@@H](NC(=O)COCCOCCn2cc(-c3cnc(N)c4c(-c5ccc(NS(=O)(=O)C(F)F)cc5)nn(C)c34)cn2)C(C)(C)C)cc1` [Compound 1021], the pKd in assay [3] is more than 8.00. For the same compound, the results for the pIC50 in assay [1] and in assay [2] (setting [7]) were 5.00 to 6.00 and less than 5.00, respectively.

For the compound `C[C@H](Oc1cc(-c2nn(C)c3c(-c4cnn(C5CCN(C)CC5)c4)cnc(N)c23)ccc1NS(=O)(=O)C(F)F)c1ccc(F)cc1` [Compound 46, (S)-N-(4-(4-amino-1-methyl-7-(1-(1-methylpiperidin-4-yl)-1H-pyrazol-4-yl)-1H-pyrazolo[4,3-c]pyridin-3-yl)-2-(1-(4-fluorophenyl)ethoxy)phenyl)-1,1-difluoromethanesulfonamide], the pKd in assay [4] and in assay [5] was less than 5.00 throughout. Further, the pIC50 is less than 5.00 in assay [2] (U-937, Table 23, read-out: Off-target effect (IC50 cell-based assay)) and more than 6.00 in assay [6].

As to `Cc1ncsc1-c1ccc(CNC(=O)[C@@H]2C[C@@H](O)CN2C(=O)[C@H](NC(=O)C2(F)CC2)C(C)(C)C)c(OCCCCCCCn2cc(-c3cnc(N)c4c(-c5ccc(NS(=O)(=O)C(F)F)c(O[C@@H](C)c6ccc(F)cc6)c5)nn(C)c34)cn2)c1` [Compound 1030, (2S,4R)—N-[(2-{[7-(4-{4-amino-3-[4-(difluoromethanesulfonamido)-3-[(1S)-1-(4-fluorophenyl)ethoxy]phenyl]-1-methyl-1H-pyrazolo[4,3-c]pyridin-7-yl}-1H-pyrazol-1-yl)heptyl]oxy}-4-(4-methyl-1,3-thiazol-5-yl)phenyl)methyl]-1-[(2R)-2-[(1-fluorocyclopropyl)formamido]-3,3-dimethylbutanoyl]-4-hydroxypyrrolidine-2-carboxamide], in assay [3], the pKd was 6.00 to 8.00. The pIC50 is more than 6.00 in assay [1] and less than 5.00 in assay [2] (setting [7]).

Turning to `Cc1ncsc1-c1ccc(CNC(=O)[C@@H]2C[C@@H](O)CN2C(=O)[C@@H](NC(=O)COCCN2CCC(n3cc(-c4cnc(N)c5c(-c6ccc(NS(=O)(=O)C(F)F)c(O[C@@H](C)c7ccc(F)cc7)c6)nn(C)c45)cn3)C2)C(C)(C)C)cc1` (stereo partly drawn) [Compound 1013, (2S,4R)-1-[(2S)-2-(2-{2-[3-(4-{4-amino-3-[4-(difluoromethanesulfonamido)-3-[(1S)-1-(4-fluorophenyl)ethoxy]phenyl]-1-methyl-1H-pyrazolo[4,3-c]pyridin-7-yl}-1H-pyrazol-1-yl)pyrrolidin-1-yl]ethoxy}acetamido)-3,3-dimethylbutanoyl]-4-hydroxy-N-{[4-(4-methyl-1,3-thiazol-5-yl)phenyl]methyl}pyrrolidine-2-carboxamide], the negative logarithm of the Kd (pKd) in assay [3] is more than 8.00. Further, the pIC50 was 5.00 to 6.00 in assay [1] and less than 5.00 in assay [2] (setting [7]).

For `CCS(=O)(=O)Nc1ccc(-c2n[nH]c3c(-c4cnn(CCOCC(=O)N[C@H](C(=O)N5C[C@H](O)C[C@H]5C(=O)NCc5ccc(-c6scnc6C)cc5)C(C)(C)C)c4)cnc(N)c23)cc1OCc1ccc(F)cc1` [Compound 1004, (2S,4R)-1-[(2S)-2-(2-{2-[4-(4-amino-3-{4-ethanesulfonamido-3-[(4-fluorophenyl)methoxy]phenyl}-1H-pyrazolo[4,3-c]pyridin-7-yl)-1H-pyrazol-1-yl]ethoxy}acetamido)-3,3-dimethylbutanoyl]-4-hydroxy-N-{[4-(4-methyl-1,3-thiazol-5-yl)phenyl]methyl}pyrrolidine-2-carboxamide], in assay [3], the pKd was more than 8.00. In addition, the pIC50 in assay [1] and in assay [2] (setting [7]) was less than 5.00 throughout.
